According to patent US20220073536A1 (Rigel Pharmaceuticals, Inc., priority 2003, published 2022):

Experiments:
[1] = system: cultured human mast cells (CHMC); experiment: CHMC low cell density ionomycin activation: tryptase assay; type: cell-based; conditions: Homo sapiens, Mast cell, low cell density CHMC, tryptase, 3 pt, read-out: LD Tryptase, CHMC, Iono, 3 pt
[2] = system: cultured human mast cells (CHMC); experiment: CHMC low cell density IgE activation: tryptase assay; type: cell-based; conditions: Homo sapiens, Mast cell, low cell density CHMC, IgE activation, tryptase, 3 pt; read-out: LD Tryptase, CHMC, IgE, 3 pt
Outline: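 Tryptase release, fluorogenic substrate, 30 min RT. Prior anti-IgE stimulation of CHMC, 30 min, 37 °C, after 1 hr preincubation at 1000–1500 cells/well in MT; unstimulated wells received MT.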

SMILES	IC50 [1]	IC50 [2]
O=C(Nc1ccc(Nc2ncc(F)c(NC3CCC3)n2)cc1)c1ccccc1 [Compound 1154, N2-(4-Benzamidophenyl)-N4-cyclobutyl-5-fluoro-2,4-pyrimidinediamine]	> 10 µM	< 10 µM
Fc1cnc(Nc2ccc(N3CCOCC3)cc2)nc1NC1CCCC1 [Compound 1155, N4-Cyclopentyl-5-fluoro-N2-(4-morpholinophenyl)-2,4-pyrimidinediamine]	> 10 µM	< 10 µM
CC(=O)N1CCN(c2ccc(Nc3ncc(F)c(NC4CCCC4)n3)cc2)CC1 [Compound 1156, N2-[4-(4-Acetylpiperazino)phenyl]-N4-cyclopentyl-5-fluoro-2,4-pyrimidinediamine]	> 10 µM	< 10 µM
Fc1cnc(Nc2ccc(N3CCOCC3)cc2)nc1NC1CCCCC1 [Compound 1162, N4-Cyclohexyl-5-fluoro-N2-(4-morpholinophenyl)-2,4-pyrimidinediamine]	> 10 µM	< 10 µM
CC(=O)N1CCN(c2ccc(Nc3ncc(F)c(NC4CCCCC4)n3)cc2)CC1 [Compound 1163, N2-[4-(4-Acetylpiperazino)phenyl]-N4-cyclohexyl-5-fluoro-2,4-pyrimidinediamine]	> 10 µM	< 10 µM
CCOC(=O)N1CCN(c2ccc(Nc3ncc(F)c(NC4CCCCC4)n3)cc2)CC1 [Compound 1165, N4-Cyclohexyl-N2-[4-(4-ethoxycarbonylpiperazino)phenyl]-5-fluoro-2,4-pyrimidinediamine]	< 10 µM	< 10 µM
O=C(Nc1ccc(Nc2ncc(F)c(NC3CCCC3)n2)cc1)c1ccccc1 [Compound 1170, N2-(4-Benzamidophenyl)-N4-cyclopentyl-5-fluoro-2,4-pyrimidinediamine]	> 10 µM	< 10 µM

Now from value to compound:

IC50 [1]	IC50 [2]	SMILES
> 10 µM	< 10 µM	CN1CCN(c2ccc(Nc3ncc(F)c(NC4CCCC4)n3)cc2)CC1 [Compound 1157, N4-Cyclopentyl-5-fluoro-N2-[4-(4-methylpiperazino)phenyl]-2,4-pyrimidinediamine]
> 10 µM	< 10 µM	Fc1cnc(Nc2cccc(N3CCOCC3)c2)nc1NC1CCCC1 [Compound 1158, N4-Cyclopentyl-5-fluoro-N2-(3-morpholinophenyl)-2,4-pyrimidinediamine]
> 10 µM	< 10 µM	CC(=O)N1CCN(c2cccc(Nc3ncc(F)c(NC4CCCC4)n3)c2)CC1 [Compound 1159, N2-[3-(4-Acetylpiperazino)phenyl]-N4-cyclopentyl-5-fluoro-2,4-pyrimidinediamine]
> 10 µM	< 10 µM	CN1CCN(c2cccc(Nc3ncc(F)c(NC4CCCC4)n3)c2)CC1 [Compound 1160]
> 10 µM	< 10 µM	CCOC(=O)N1CCN(c2cccc(Nc3ncc(F)c(NC4CCCC4)n3)c2)CC1 [Compound 1161]
> 10 µM	< 10 µM	Fc1cnc(Nc2cccc(N3CCOCC3)c2)nc1NC1CCCCC1 [Compound 1166, N4-Cyclohexyl-5-fluoro-N2-(3-morpholinophenyl)-2,4-pyrimidinediamine]
> 10 µM	< 10 µM	CC(=O)N1CCN(c2cccc(Nc3ncc(F)c(NC4CCCCC4)n3)c2)CC1 [Compound 1167, N2-[3-(4-Acetylpiperazino)phenyl]-N4-cyclohexyl-5-fluoro-2,4-pyrimidinediamine]
> 10 µM	< 10 µM	CN1CCN(c2cccc(Nc3ncc(F)c(NC4CCCCC4)n3)c2)CC1 [Compound 1168, N4-Cyclohexyl-5-fluoro-N2-[3-(4-methylpiperazino)phenyl]-2,4-pyrimidinediamine]
> 10 µM	< 10 µM	CCOC(=O)N1CCN(c2cccc(Nc3ncc(F)c(NC4CCCCC4)n3)c2)CC1 [Compound 1169, N4-Cyclohexyl-N2-[3-(4-ethoxycarbonylpiperazino)phenyl]-5-fluoro-2,4-pyrimidinediamine]
